The subject of this data set is subcutaneous prostate cancer model (PC3). Briefly: Tumour specific uptake of Evans Blue after ACT. The format is in vivo, mice. The note with it: Enhancement 0.5 MHz, MI 0 to 0.4, 30 min after treatment. As for the experimental part: To investigate the effect of MI variance of the US Enhancement field, tumour specific uptake of Evans Blue (EB, fluorescent dye) has been investigated in a subcutaneous prostate cancer model (PC3) in mice. Five groups with Enhancement insonation MIs of 0, 0.1, 0.2, 0.3 and 0.4 were investigated (N=3 animals per group). […] 30 min after treatment, the tumors were excised and the amount of EB was measured by spectrophotometry at 620 nm.

Turning to `Cc1cc(-c2ccc(/N=N/c3ccc4c(S(=O)(=O)O)cc(S(=O)(=O)O)c(N)c4c3O)c(C)c2)ccc1/N=N/c1ccc2c(S(=O)(=O)O)cc(S(=O)(=O)O)c(N)c2c1O` [Evans Blue], the “tumour tissue uptake as function of Enhancement MI” value is “increases from no US (MI=0) to MI=0.1 and further with MI=0.2, but then drops again with MI=0.3 and further with M=0.4”.

The values above are taken from patent publication US20240358984A1, “Ultrasound delivery” (ACT Therapeutics Ltd, priority 2021, published 2024).
